12 compounds from ChEMBL document CHEMBL3046593, “Studies on the synthesis of some new substituted benzylamino and phenyl-acrylamido-methyl flavone derivatives” (2007) can be followed below.

Molecules are shown by their SMILES. Activity calls are given as the source filed them. The calls are words filed in the database; no cut-off is given here.

What all share (format): functional
Holding throughout (settings): for zone of inhibition at 3000 µg/mL: read-out: DIZ

For one experiment, the system named is Staphylococcus aureus. In words: Antibacterial activity against Staphylococcus aureus ATCC 250 at 3000 ug/ml after 18 to 24 hr by disk diffusion method.
The test system of the next experiment is Escherichia coli. In words: Antibacterial activity against Escherichia coli RSKK 313 at 3000 ug/ml after 18 to 24 hr by disk diffusion method.
The subject of a further experiment is Candida albicans. The experiment can be described thus: Antifungal activity against Candida albicans RSKK 628 at 3000 ug/ml after 18 to 24 hr by disk diffusion method.

Regarding `O=c1cc(-c2cccc(CNCc3ccc(F)cc3)c2)oc2ccccc12`, the zone of inhibition at 3000 µg/mL in the experiment with Staphylococcus aureus amounted to 15 mm; in the experiment with Candida albicans, 20 mm. In addition, the “diameter of the inhibition zone (DIZ)” value in the experiment on Escherichia coli was “inactive”.

Regarding `O=C(/C=C/c1ccccc1)N(Cc1ccc(Cl)cc1)Cc1cccc(-c2cc(=O)c3ccccc3o2)c1`, the “diameter of the inhibition zone (DIZ)” value in the experiment with Staphylococcus aureus was “inactive”. The results for the zone of inhibition at 3000 µg/mL in the experiment with Escherichia coli and in the experiment with Candida albicans were 12 mm and 13 mm, respectively.

On to `O=c1cc(-c2cccc(CNCc3ccc(Cl)c(Cl)c3)c2)oc2ccccc12`, for which the zone of inhibition at 3000 µg/mL worked out at 16 mm in the experiment on Staphylococcus aureus, 12 mm in the experiment on Escherichia coli and 10 mm with Candida albicans.

As to `Clc1ccc(COC(Cn2ccnc2)c2ccc(Cl)cc2Cl)c(Cl)c1` (stereo not drawn) [MICONAZOLE], the zone of inhibition at 3000 µg/mL in the experiment with Candida albicans amounted to 35 mm.

For the compound `CC1(C)S[C@@H]2[C@H](NC(=O)[C@H](N)c3ccccc3)C(=O)N2[C@H]1C(=O)O` [AMPICILLIN], the zone of inhibition at 3000 µg/mL came to 30 mm with Staphylococcus aureus and 20 mm with Escherichia coli.

For `O=c1cc(-c2cccc(CNCc3ccccc3)c2)oc2ccccc12`, the zone of inhibition at 3000 µg/mL in the experiment on Staphylococcus aureus came out at 16 mm; in the experiment with Escherichia coli, 10 mm; in the experiment with Candida albicans it was 25 mm.

With `O=c1cc(-c2cccc(CNCc3ccc(Cl)cc3Cl)c2)oc2ccccc12`, in the experiment with Staphylococcus aureus, the zone of inhibition at 3000 µg/mL was determined as 10 mm. The “diameter of the inhibition zone (DIZ)” value in the experiment on Escherichia coli and with Candida albicans was “inactive” throughout.

Turning to `O=C(/C=C/c1ccccc1)N(Cc1cccc(-c2cc(=O)c3ccccc3o2)c1)Cc1ccc(Cl)cc1Cl`, the “diameter of the inhibition zone (DIZ)” value in the experiment with Staphylococcus aureus and with Escherichia coli was “inactive” in each case. Also, the zone of inhibition at 3000 µg/mL with Candida albicans stood at 15 mm.

Take `O=C(/C=C/c1ccccc1)N(Cc1ccccc1)Cc1cccc(-c2cc(=O)c3ccccc3o2)c1`: in the experiment on Staphylococcus aureus, the zone of inhibition at 3000 µg/mL worked out at 10 mm. Further, the “diameter of the inhibition zone (DIZ)” value in the experiment on Escherichia coli and in the experiment with Candida albicans was “inactive” each time.

For the compound `O=c1cc(-c2cccc(CNCc3ccc(Cl)cc3)c2)oc2ccccc12`, the values for the zone of inhibition at 3000 µg/mL in the experiment on Staphylococcus aureus and in the experiment with Candida albicans were 25 mm and 15 mm, respectively. The “diameter of the inhibition zone (DIZ)” value in the experiment with Escherichia coli is “inactive”.

Consider `O=C(/C=C/c1ccccc1)N(Cc1ccc(F)cc1)Cc1cccc(-c2cc(=O)c3ccccc3o2)c1`, for which the “diameter of the inhibition zone (DIZ)” value in the experiment on Staphylococcus aureus, in the experiment with Escherichia coli and in the experiment on Candida albicans was “inactive” each time.

With `O=C(/C=C/c1ccccc1)N(Cc1cccc(-c2cc(=O)c3ccccc3o2)c1)Cc1ccc(Cl)c(Cl)c1`, the “diameter of the inhibition zone (DIZ)” value in the experiment with Staphylococcus aureus and in the experiment on Escherichia coli was “inactive” in each case. In the experiment on Candida albicans, the zone of inhibition at 3000 µg/mL came to 15 mm.
